Results reported in ChEMBL document CHEMBL4145489, “Synthesis and anti-tumor activity of EF24 analogues as IKKβ inhibitors” (Eur J Med Chem, 2018).
Each block holds one compound with its values, some of them ahead of it. Activity calls are given as the source filed them. The calls are words filed in the database; no cut-off is given here.

What was measured:
HeLa 229 = assay: Antiproliferative activity against human HeLa 229 cells after 72 hrs by MTT assay; assay type: functional, cell-based; details: HeLa 229, 72 h
SGC-7901 [1] = assay: Antiproliferative activity against human SGC7901 cells after 72 hrs by MTT assay; assay type: functional, cell-based; details: SGC-7901, 72 h
MGC-803 [2] = assay: Antiproliferative activity against human MGC803 cells after 72 hrs by MTT assay; assay type: functional, cell-based; details: MGC-803, 72 h
A549 = assay: Antiproliferative activity against human A549 cells after 72 hrs by MTT assay; assay type: functional, cell-based; details: A549, 72 h
[3] = target: T1, Inhibitor of nuclear factor kappa-B kinase subunit beta (Homo sapiens, UniProt O14920); assay: Inhibition of IKKbeta (unknown origin) using FAM-P22 as substrate preincubated for 10 mins followed by substrate addition and measured after 1 hr by mobility shift assay
T1 sequence (O14920 whole entry): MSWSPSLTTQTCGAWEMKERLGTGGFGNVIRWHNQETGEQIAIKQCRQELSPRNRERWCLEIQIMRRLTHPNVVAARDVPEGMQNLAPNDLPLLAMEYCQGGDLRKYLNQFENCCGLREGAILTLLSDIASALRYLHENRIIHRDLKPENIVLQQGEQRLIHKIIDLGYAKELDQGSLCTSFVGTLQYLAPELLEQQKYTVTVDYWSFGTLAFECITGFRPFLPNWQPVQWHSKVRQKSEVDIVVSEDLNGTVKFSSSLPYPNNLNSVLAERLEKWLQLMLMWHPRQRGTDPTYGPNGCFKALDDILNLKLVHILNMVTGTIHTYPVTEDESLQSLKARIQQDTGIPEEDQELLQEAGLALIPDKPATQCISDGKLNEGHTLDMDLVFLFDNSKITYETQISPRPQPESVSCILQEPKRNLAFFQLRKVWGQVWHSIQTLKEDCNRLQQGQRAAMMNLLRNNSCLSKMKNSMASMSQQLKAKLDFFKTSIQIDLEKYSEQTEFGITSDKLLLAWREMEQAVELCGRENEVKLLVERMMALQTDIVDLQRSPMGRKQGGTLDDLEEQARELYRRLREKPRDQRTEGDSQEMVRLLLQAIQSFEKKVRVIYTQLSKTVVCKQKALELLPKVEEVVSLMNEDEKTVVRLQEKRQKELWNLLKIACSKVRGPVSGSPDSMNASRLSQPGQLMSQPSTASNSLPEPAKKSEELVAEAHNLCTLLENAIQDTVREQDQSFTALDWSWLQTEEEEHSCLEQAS

SGC-7901 [4] = assay: Induction of apoptosis in human SGC7901 cells at 10 uM after 12 hrs by Annexin V-FITC staining-based FACS analysis (reference value: 1.56%); assay type: functional
MGC-803 [5] = assay: Induction of apoptosis in human MGC803 cells at 10 uM after 12 hrs by Annexin V-FITC staining-based FACS analysis (reference value: 1.17%); assay type: functional
MGC-803 [6] = assay: Induction of apoptosis in human MGC803 cells at 1 uM after 12 hrs by Annexin V-FITC staining-based FACS analysis (reference value: 1.17%); assay type: functional
MGC-803 [7] = assay: Induction of apoptosis in human MGC803 cells at 5 uM after 12 hrs by Annexin V-FITC staining-based FACS analysis (reference value: 1.17%); assay type: functional
[8] = target: T2, Inhibitor of nuclear factor kappa-B kinase subunit beta (Homo sapiens) (UniProt O14920); assay: Inhibition of IKKbeta in human SGC-7901 cells assessed as TNF-alpha induced I-kappa-B-alpha degradation at 1 to 10 uM preincubated for 1 hr followed by TNF-alpha stimulation and measured after 10 mins by Western blot analysis; assay type: cell-based
T2 sequence (whole entry): T1 sequence (O14920 whole entry)

[9] = target: T3, Inhibitor of NF-kappa-B kinase alpha/beta (Homo sapiens) (UniProt O14920+O15111); assay: Inhibition of TNF-alpha induced IKKalpha/beta phosphorylation in human MGC-803 cells preincubated for 1 hr followed by TNF-alpha stimulation and measured after 10 mins by Western blot analysis; assay type: cell-based
[10] = target: T2, Inhibitor of nuclear factor kappa-B kinase subunit beta (Homo sapiens); assay: Inhibition of IKKbeta in human MGC-803 cells assessed as TNF-alpha induced I-kappa-B-alpha degradation at 1 to 10 uM preincubated for 1 hr followed by TNF-alpha stimulation and measured after 10 mins by Western blot analysis; assay type: cell-based
SGC-7901 [11] = assay: Induction of apoptosis in human SGC7901 cells after 12 hrs by Annexin V-FITC staining-based FACS analysis; assay type: functional, cell-based
Mus musculus [12] = assay: In vivo inhibition of IKKalpha/beta in tumor of athymic nude mouse xenografted with human SGC7901 cells assessed as I-kappa-B-alpha degradation at 10 mg/kg, ip administered every other day for 22 days by Western blot method; assay type: functional, organism-based
Mus musculus [13] = assay: In vivo inhibition of IKKalpha/beta phosphorylation in tumor of athymic nude mouse xenografted with human SGC7901 cells at 10 mg/kg, ip administered every other day for 22 days by Western blot method; assay type: functional, organism-based
MGC-803 [14] = assay: Induction of apoptosis in human MGC803 cells assessed as decrease in Bcl-2 levels at 1 to 10 uM after 12 hrs by Western blot analysis; assay type: functional, cell-based
SGC-7901 [15] = assay: Induction of apoptosis in human SGC7901 cells assessed as decrease in Bcl-2 levels at 1 to 10 uM after 12 hrs by Western blot analysis; assay type: functional, cell-based
Mus musculus [16] = assay: Downregulation of Bcl-2 levels in tumor of athymic nude mouse xenografted with human SGC7901 cells at 10 mg/kg, ip administered every other day for 22 days by Western blot method; assay type: functional, organism-based
[17] = target: T3, Inhibitor of NF-kappa-B kinase alpha/beta (Homo sapiens); assay: Inhibition of TNF-alpha induced IKKalpha/beta phosphorylation in human SGC-7901 cells preincubated for 1 hr followed by TNF-alpha stimulation and measured after 10 mins by Western blot analysis; assay type: cell-based
SGC-7901 [18] = assay: Induction of apoptosis in human SGC7901 cells assessed as increase in cleaved caspase-3 levels at 1 to 10 uM after 12 hrs by Western blot analysis; assay type: functional, cell-based
SGC-7901 [19] = assay: Cell cycle arrest in human SGC7901 cells assessed as decrease in cyclinB1 levels at 1 to 10 uM after 12 hrs by Western blot analysis; assay type: functional, cell-based
MGC-803 [20] = assay: Cell cycle arrest in human MGC803 cells assessed as decrease in Cdc2 p34 levels after 12 hrs by Western blot analysis; assay type: functional, cell-based
MGC-803 [21] = assay: Cell cycle arrest in human MGC803 cells assessed as accumulation of cells at G2/M phase at 1 to 10 uM after 12 hrs by propidium iodide staining-based flow cytometric analysis; assay type: functional
SGC-7901 [22] = assay: Cell cycle arrest in human SGC7901 cells assessed as decrease in Cdc2 p34 levels after 12 hrs by Western blot analysis; assay type: functional, cell-based
MGC-803 [23] = assay: Cell cycle arrest in human MGC803 cells assessed as decrease in cyclinB1 levels at 1 to 10 uM after 12 hrs by Western blot analysis; assay type: functional, cell-based
SGC-7901 [24] = assay: Antitumor activity against human SGC7901 cells xenografted in athymic nude mouse assessed as tumor growth inhibition at 10 mg/kg, ip administered every other day for 22 days; assay type: functional, organism-based
SGC-7901 [25] = assay: Induction of apoptosis in human SGC7901 cells at 1 uM after 12 hrs by Annexin V-FITC staining-based FACS analysis (reference value: 1.56%); assay type: functional
[26] = target: T2, Inhibitor of nuclear factor kappa-B kinase subunit beta (Homo sapiens); assay: Inhibition of IKKbeta in human SGC-7901 cells assessed as decrease in TNF-alpha induced p65 nuclear translocation at 10 uM preincubated for 1 hr followed by TNF-alpha stimulation and measured after 1 hr by DAPI staining-based fluorescence microscopic analysis; assay type: cell-based
Mus musculus [27] = assay: Toxicity in athymic nude mouse xenografted with human SGC7901 cells assessed as body weight loss at 10 mg/kg, ip administered every other day for 22 days; assay type: organism-based; details: in vivo, 528 h
MGC-803 [28] = assay: Induction of apoptosis in human MGC803 cells after 12 hrs by Annexin V-FITC staining-based FACS analysis; assay type: functional, cell-based
SGC-7901 [29] = assay: Induction of apoptosis in human SGC7901 cells at 5 uM after 12 hrs by Annexin V-FITC staining-based FACS analysis (reference value: 1.56%); assay type: functional
SGC-7901 [30] = assay: Cell cycle arrest in human SGC7901 cells assessed as accumulation of cells at G2/M phase at 1 to 10 uM after 12 hrs by propidium iodide staining-based flow cytometric analysis; assay type: functional
MGC-803 [31] = assay: Induction of apoptosis in human MGC803 cells assessed as increase in cleaved caspase-3 levels at 1 to 10 uM after 12 hrs by Western blot analysis; assay type: functional, cell-based

Structure (SMILES): O=C1/C(=C/c2ccccc2F)COC/C1=C\c1ccccc1F
IC50 [3]: 19600 nM

Structure (SMILES): Cc1ccc2nc(NCCN)c3ncc(C)n3c2c1.Cl
IC50 (HeLa 229): 9400 nM | IC50 (SGC-7901 [1]): 8300 nM | IC50 (MGC-803 [2]): 14200 nM | IC50 (A549): 9300 nM | Activity (SGC-7901 [4]): 19.49% | Activity (MGC-803 [5]): 12.61%

Structure (SMILES): O=C1/C(=C/c2c(F)cccc2F)CNC/C1=C\c1c(F)cccc1F
IC50 [3]: 14000 nM

Second part, led by results:

IC50 (HeLa 229): 1900 nM | IC50 (SGC-7901 [1]): 1000 nM | IC50 (MGC-803 [2]): 2000 nM | IC50 (A549): 2800 nM
Structure (SMILES): O=C1/C(=C/c2ccccc2F)CNC/C1=C\c1ccccc1F

inhibition [8]: Active | inhibition [9]: Dose-dependent effect | inhibition [10]: Active | IC50 (HeLa 229): 1800 nM | inhibition [17]: Dose-dependent effect | IC50 (SGC-7901 [1]): 1200 nM | inhibition [26]: Active | IC50 (MGC-803 [2]): 1800 nM | IC50 (A549): 2100 nM
Structure (SMILES): O=C1/C(=C/c2ccccc2Br)CNC/C1=C\c1ccccc1Br
Activity (MGC-803 [6]): 9.88% | Activity (MGC-803 [7]): 16.14% | Activity (SGC-7901 [11]): Dose-dependent effect | inhibition (Mus musculus [12]): Active | inhibition (Mus musculus [13]): Active | Activity (MGC-803 [14]): Active | Activity (SGC-7901 [15]): Active | Activity (Mus musculus [16]): Active | Activity (SGC-7901 [18]): Active | Activity (SGC-7901 [19]): Active | Activity (MGC-803 [20]): Dose-dependent effect | Activity (MGC-803 [21]): Active | Activity (SGC-7901 [22]): Dose-dependent effect | Activity (MGC-803 [23]): Active | TGI (SGC-7901 [24]): Active | Activity (SGC-7901 [25]): 8.95% | Activity (Mus musculus [27]): Non-Toxic | Activity (MGC-803 [28]): Dose-dependent effect | Activity (SGC-7901 [29]): 27.9% | Activity (SGC-7901 [30]): Active | Activity (MGC-803 [31]): Active | Activity (SGC-7901 [4]): 45.3% | Activity (MGC-803 [5]): 32.1%
